Values of other authors as cited in patent US20040228911A1, “Vinorelbine compositions and methods of use” (NeoPharm, Inc., priority 2001, published 2004).
Structures can show the parent of a compound that is named as a salt.

Assays:
[1] = distilled water
[2] = test system: mitotic microtubules; conditions: intact tectal plates from mouse embryos
[3] = test system: axonal microtubules; conditions: intact tectal plates from mouse embryos

| aqueous solubility [1] | Structure (SMILES) | concentration inhibiting mitotic microtubule formation, inducing a blockade of cells at metaphase [2] [µM] | concentration producing depolymerization of axonal microtubules [3] [µM] |
| --- | --- | --- | --- |
| less than 1000 mg/mL | CCC1=C[C@@H]2CN(C1)Cc1c([nH]c3ccccc13)[C@@](C(=O)OC)(c1cc3c(cc1OC)N(C)[C@H]1[C@@](O)(C(=O)OC)[C@H](OC(C)=O)[C@]4(CC)C=CCN5CC[C@]31[C@@H]54)C2 [Vinorelbine tartrate, 3′,4′-didehydro-4′-deoxy-C-norvincaleukoblastine [R—(R,R)-2,3-dihydroxybutanedioate (1:2)(salt)]] |  |  |
|  | CC[C@]1(O)C[C@@H]2CN(CCc3c([nH]c4ccccc34)[C@@](C(=O)OC)(c3cc4c(cc3OC)N(C)[C@H]3[C@@](O)(C(=O)OC)[C@H](OC(C)=O)[C@]5(CC)C=CCN6CC[C@]43[C@@H]65)C2)C1 [vinblastine] | 2 | 30 |
|  | CC[C@]1(O)C[C@H]2CN(CCc3c([nH]c4ccccc34)[C@@](C(=O)OC)(c3cc4c(cc3OC)N(C=O)[C@H]3[C@@](O)(C(=O)OC)[C@H](OC(C)=O)[C@]5(CC)C=CCN6CC[C@]43[C@@H]65)C2)C1 [vincristine] | 2 | 5 |
|  | CCC1=C[C@@H]2CN(C1)Cc1c([nH]c3ccccc13)[C@@](C(=O)OC)(c1cc3c(cc1OC)N(C)[C@H]1[C@@](O)(C(=O)OC)[C@H](OC(C)=O)[C@]4(CC)C=CCN5CC[C@]31[C@@H]54)C2 [vinorelbine, 3′,4′-didehydro-4′-deoxy-C-norvincaleukoblastine [R—(R,R)-2,3-dihydroxybutanedioate (1:2)(salt)]] | 2 | 40 |
